The subject of assay [1] is HCT-116. Description: Antitumor activity against human HCT116 cells after 72 hrs by MTT assay. Type of assay: functional, cell-based. The conditions noted are these: HCT-116, 72 h. A general note: Tetrazolium assays rely on reduction of a dye to a coloured formazan, in cell work by metabolically active cells.
Assay [2] is filed under the species Homo sapiens. Description: Inhibition of NAE in human HCT116 cells assessed as decrease in NEDD8 level after 4 hrs by Western blot analysis. Type of assay: cell-based. In general terms: A western blot detects proteins with antibodies after separation by electrophoresis.
The species entered for assay [3] is Homo sapiens. Briefly: Inhibition of NAE in human HCT116 cells assessed as decrease in NEDD8-UBC12 complex formation after 4 hrs by Western blot analysis. Type of assay: cell-based.
In assay [4] the test system is U2OS. Description: Antitumor activity against human U2OS cells after 72 hrs by MTT assay. Type of assay: functional, cell-based.

Each structure is given as a SMILES string.

For orientation: IC50 means the point on the concentration scale where inhibition reaches its midpoint. A lower IC50 goes with greater potency in that assay. Regarding `O=C(CSc1ccc2ccccc2c1)Nc1ccc2nc(NC(=O)c3ccc(C(F)(F)F)cc3)sc2c1`, the half-maximal inhibitory concentration (IC50) in assay [1] came out at 0.3 µM; in assay [4] it was 3.94 µM. Further, the inhibition result in assay [2] and in assay [3] was “Dose-dependent effect” in each case.
For `Cc1ccc(C(=O)Nc2nc3ccc(NC(=O)CSc4ccc(Cl)cc4)cc3s2)cc1`, the results for the IC50 in assay [1] and in assay [4] were 2.12 µM and 3.19 µM, respectively.
The like results for `O=C(CSc1cccc(O)c1)Nc1ccc2nc(NC(=O)c3ccc4ccccc4c3)sc2c1` were, in that order, 4.25 µM and 1.77 µM.
The like results for `O=C(CSc1ccc(Cl)cc1)Nc1ccc2nc(NC(=O)c3ccc(F)cc3)sc2c1` were, in that order, 1.36 µM and 2.51 µM.
On to `O=C(CSc1nnc(NC(=O)COc2ccccc2)s1)Nc1ccc(Br)cc1`, for which the IC50 in assay [1] and in assay [4] was above 100 µM each time.
`O=C(CSc1cccc(O)c1)Nc1ccc2nc(NC(=O)c3ccccc3)sc2c1`: the IC50 in assay [1] is 41 µM; in assay [4] it was above 100 µM.
Take `Cn1c(CNC(=O)c2cccs2)nnc1SCC(=O)Nc1cccc(Cl)c1`: the IC50 in assay [1] and in assay [4] was above 100 µM throughout.
Take `CCCC(=O)Nc1nc2ccc(NC(=O)CSc3cccc(O)c3)cc2s1`: the figures for the IC50 in assay [1] and in assay [4] were 10.6 µM and 10.1 µM, respectively.
As for `O=C(Cc1nnc(NC(=O)c2ccc(Cl)cc2)s1)N/N=C/c1ccc(O)cc1O`, the IC50 in assay [1] is 38.1 µM; in assay [4] it was 40.4 µM.
As to `COc1ccc(C(=O)Nc2nnc(SCC(=O)Nc3ccc(Br)cc3)s2)cc1OC`, the IC50 is 66.6 µM in assay [1] and above 100 µM in assay [4].
For `O=C(CSc1ncc[nH]1)Nc1ccc2nc(NC(=O)c3ccc(C(F)(F)F)cc3)sc2c1` the same measures were 2.69 µM and 18.8 µM.
The like results for `O=C(CSC1CCCCC1)Nc1ccc2nc(NC(=O)c3ccc(C(F)(F)F)cc3)sc2c1` were, in that order, 21 µM and 12.3 µM.
Consider `O=C(CSc1ncccc1C(=O)O)Nc1ccc2nc(NC(=O)c3ccc(C(F)(F)F)cc3)sc2c1`, for which the IC50 in assay [1] was 2.3 µM; in assay [4], 13.6 µM.
Consider `Cc1ccc(C(=O)Nc2nc3ccc(NC(=O)CSc4cccc(O)c4)cc3s2)cc1`, for which the IC50 is 7.73 µM in assay [1] and 12.4 µM in assay [4].
On to `Nc1ccc(SCC(=O)Nc2ccc3nc(NC(=O)c4ccc(C(F)(F)F)cc4)sc3c2)cc1`, for which the results for the IC50 in assay [1] and in assay [4] were 0.1 µM and 1.22 µM, respectively. The inhibition entry in assay [2] and in assay [3] was “Dose-dependent effect” throughout.
Turning to `O=C(CSc1cccc(O)c1)Nc1ccc2nc(NC(=O)c3cc(Cl)cc(Cl)c3)sc2c1`, the IC50 in assay [1] is 5.44 µM; in assay [4], 1.53 µM.
`Cc1ccc(S(=O)(=O)Nc2nc(C)c(NC(=O)Nc3ccc(Cl)cc3)s2)cc1`: the results for the IC50 in assay [1] and in assay [4] were 47.4 µM and 88.8 µM, respectively.
Consider `O=C(CSc1ccc(Cl)cc1)Nc1ccc2nc(NC(=O)c3ccc(C(F)(F)F)cc3)sc2c1`, for which the IC50 in assay [1] stood at 0.93 µM; in assay [4] it was 2.89 µM.
Turning to `O=C(CSc1ccc(Cl)cc1)Nc1ccc2nc(NC(=O)c3ccc4ccccc4c3)sc2c1`, the values for the IC50 in assay [1] and in assay [4] were 4.04 µM and 14.5 µM, respectively.
`O=C(CSc1cccc(O)c1)Nc1ccc2nc(NC(=O)c3cccs3)sc2c1`: the IC50 came to 7.02 µM in assay [1] and 63 µM in assay [4].
For `Cn1c(CNC(=O)c2cccs2)nnc1SCC(=O)Nc1ccc(Cl)cc1`, the IC50 in assay [1] was 91.4 µM; in assay [4], above 100 µM.
Consider `COc1cc(CNC(C)(C)CO)ccc1OCC(=O)Nc1ccc(C)cc1`, for which the IC50 in assay [1] and in assay [4] was above 100 µM in each case.
For `O=C(CSc1cccc(O)c1)Nc1ccc2nc(NC(=O)c3ccc(C(F)(F)F)cc3)sc2c1`, the values for the IC50 in assay [1] and in assay [4] were 0.51 µM and 0.63 µM, respectively. The inhibition entry in assay [2] and in assay [3] was “Dose-dependent effect” in each case.
With `O=C(CSc1ncccn1)Nc1ccc2nc(NC(=O)c3ccc(C(F)(F)F)cc3)sc2c1`, the IC50 in assay [1] is 2.22 µM; in assay [4], 28.1 µM.
For the molecule `Cc1nc(Nc2nc3ccccc3o2)nc(C)c1C(=O)Nc1ccc(F)cc1`, the figures for the IC50 in assay [1] and in assay [4] were 15.3 µM and 79.3 µM, respectively.
On to `Cc1cc(C)cc(C(=O)Nc2nc3ccc(NC(=O)CSc4ccc(Cl)cc4)cc3s2)c1`, for which the IC50 is 65 µM in assay [1] and above 100 µM in assay [4].
Regarding `CC(O)c1cccc(NC(=O)c2cc(Br)ccc2Br)c1` (configuration not stated), the IC50 in assay [1] and in assay [4] was above 100 µM in each case.
Turning to `COc1ccc(/C=N/NC(=O)c2ccc(NC(=O)c3ccccc3Br)cc2)cc1`, the IC50 was above 100 µM in assay [1] and 93.1 µM in assay [4].
Regarding `Oc1ccc(Cl)cc1/C=N/c1ccc(-c2nc3ccccc3o2)c(O)c1`, the IC50 in assay [1] was 20.1 µM; in assay [4], 21.7 µM.
For `CCCC(=O)Nc1nc2ccc(NC(=O)CSc3ccc(Cl)cc3)cc2s1` the same measures were 2.12 µM and 3.19 µM.
For `NS(=O)(=O)OC[C@@H]1C[C@@H](n2ccc3c(N[C@H]4CCc5ccccc54)ncnc32)C[C@@H]1O` [PEVONEDISTAT], the IC50 in assay [1] came to 0.19 µM; in assay [4], 0.16 µM.
For the molecule `CCn1c(CNc2ccc(OC)cc2)nnc1SCC(=O)Nc1ccc(Cl)cc1`, the values for the concentration for half-maximal inhibition (IC50) in assay [1] and in assay [4] were 39.5 µM and 63.5 µM, respectively.
As to `O=C(CSc1nc2ccccc2[nH]1)Nc1ccc2nc(NC(=O)c3ccc(C(F)(F)F)cc3)sc2c1`, the IC50 is 3.76 µM in assay [1] and 7.11 µM in assay [4].
As for `O=C(Cc1nnc(NC(=O)c2ccc(Cl)cc2)s1)N/N=C/c1ccc(O)cc1`, the 50% inhibitory concentration (IC50) in assay [1] was 68.3 µM; in assay [4] it was above 100 µM.
Take `Cc1ccc(SCC(=O)Nc2ccc3nc(NC(=O)c4ccc(C(F)(F)F)cc4)sc3c2)c(C)c1`: the IC50 in assay [1] came to 0.32 µM; in assay [4], 1 µM.
Turning to `Cc1cc(C)cc(C(=O)Nc2nc3ccc(NC(=O)CSc4cccc(O)c4)cc3s2)c1`, the IC50 was found to be 5.13 µM in assay [1] and 2.82 µM in assay [4].
Regarding `O=C(Cn1cc(F)c(=O)n(CC(=O)Nc2ccc(Br)cn2)c1=O)Nc1ccc(Br)cn1`, the IC50 in assay [1] came out at 11.1 µM; in assay [4], 5.14 µM.
The like results for `O=C(CSc1cccc(O)c1)Nc1ccc2nc(NC(=O)c3ccc(F)cc3)sc2c1` were, in that order, 6.17 µM and 5.12 µM.

Source of the values: ChEMBL document CHEMBL4033631, “Discovery of benzothiazole derivatives as novel non-sulfamide NEDD8 activating enzyme inhibitors by target-based virtual screening” (Eur J Med Chem, 2017).
